Laboratory results taken from patent US6358885B1, “Substituted phenylheterocyclic herbicides” (Mississippi State University, priority 1992, dated 2002).

Experiments:
Experiment in all cases: Test B preemergence/postemergence greenhouse plant response rating 0 to 10
Conditions in all cases: 0 to 10 scale
barley = type: in vivo, Hordeum vulgare
Outline: (§1)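 Test chemicals, dissolved in a non-phytotoxic solvent, were applied to soil at planting and, at the same time, over foliage of seedlings at the one to four leaf stage.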

barnyardgrass = type: in vivo, Echinochloa crus-galli
Outline: as §1

bedstraw = type: in vivo, Galium aparine
Outline: as §1

blackgrass = type: in vivo, Alopecurus myosuroides
Outline: as §1

cheatgrass = type: in vivo, Bromus secalinus
Outline: as §1

chickweed = type: in vivo, Stellaria media
Outline: as §1

cocklebur = type: in vivo, Xanthium pensylvanicum
Outline: as §1

corn = type: in vivo, Zea mays
Outline: as §1

cotton = type: in vivo, Gossypium hirsutum
Outline: as §1

crabgrass = type: in vivo, Digitaria spp.
Outline: as §1

giant foxtail = type: in vivo, Setaria faberii
Outline: as §1

lambsquarters = type: in vivo, Chenopodium album
Outline: as §1

morningglory = type: in vivo, Ipomoea hederacea
Outline: as §1

rape = type: in vivo, Brassica napus
Outline: as §1

rice = type: in vivo, Oryza sativa
Outline: as §1

sorghum = type: in vivo, Sorghum bicolor
Outline: as §1

soybean = type: in vivo, Glycine max
Outline: as §1

sugar beet = type: in vivo, Beta vulgaris
Outline: as §1

velvetleaf = type: in vivo, Abutilon theophrasti
Outline: as §1

wheat = type: in vivo, Triticum aestivum
Outline: as §1

wild buckwheat = type: in vivo, Polygonum convolvulus
Outline: as §1

wild oat = type: in vivo, Avena fatua
Outline: as §1

purple nutsedge = type: in vivo, Cyperus rotundus
Outline: as §1

SMILES: CCC(=O)Oc1cc(-c2nn3c(c2Cl)CCCC3)c(F)cc1Cl [Compound 47]
- Plant response rating, Barley (barley; POSTEMERGENCE, Rate 50 g/ha): 5
- Plant response rating, Barley (barley; POSTEMERGENCE, Rate 200 g/ha): 4
- Plant response rating, Barley (barley; PREEMERGENCE, Rate 50 g/ha): 0
- Plant response rating, Barley (barley; Rate 200 g/ha, PREEMERGENCE): 0
- Plant response rating, Barnyardgrass (barnyardgrass; POSTEMERGENCE, Rate 50 g/ha): 6
- Plant response rating, Barnyardgrass (barnyardgrass; POSTEMERGENCE, Rate 200 g/ha): 9
- Plant response rating, Barnyardgrass (barnyardgrass; PREEMERGENCE, Rate 50 g/ha): 0
- Plant response rating, Barnyardgrass (barnyardgrass; Rate 200 g/ha, PREEMERGENCE): 0
- Plant response rating, Bedstraw (bedstraw; POSTEMERGENCE, Rate 50 g/ha): 9
- Plant response rating, Bedstraw (bedstraw; POSTEMERGENCE, Rate 200 g/ha): 10
- Plant response rating, Bedstraw (bedstraw; PREEMERGENCE, Rate 50 g/ha): 9
- Plant response rating, Bedstraw (bedstraw; Rate 200 g/ha, PREEMERGENCE): 9
- Plant response rating, Blackgrass (blackgrass; POSTEMERGENCE, Rate 50 g/ha): 4
- Plant response rating, Blackgrass (blackgrass; POSTEMERGENCE, Rate 200 g/ha): 8
- Plant response rating, Blackgrass (blackgrass; PREEMERGENCE, Rate 50 g/ha): 2
- Plant response rating, Blackgrass (blackgrass; Rate 200 g/ha, PREEMERGENCE): 3
- Plant response rating, Cheatgrass (cheatgrass; POSTEMERGENCE, Rate 50 g/ha): 4
- Plant response rating, Cheatgrass (cheatgrass; POSTEMERGENCE, Rate 200 g/ha): 4
- Plant response rating, Cheatgrass (cheatgrass; PREEMERGENCE, Rate 50 g/ha): 0
- Plant response rating, Cheatgrass (cheatgrass; Rate 200 g/ha, PREEMERGENCE): 0
- Plant response rating, Chickweed (chickweed; POSTEMERGENCE, Rate 50 g/ha): 9
- Plant response rating, Chickweed (chickweed; POSTEMERGENCE, Rate 200 g/ha): 9
- Plant response rating, Chickweed (chickweed; PREEMERGENCE, Rate 50 g/ha): 0
- Plant response rating, Chickweed (chickweed; Rate 200 g/ha, PREEMERGENCE): 2
- Plant response rating, Cocklebur (cocklebur; POSTEMERGENCE, Rate 50 g/ha): 6
- Plant response rating, Cocklebur (cocklebur; POSTEMERGENCE, Rate 200 g/ha): 9
- Plant response rating, Cocklebur (cocklebur; PREEMERGENCE, Rate 50 g/ha): 2
- Plant response rating, Cocklebur (cocklebur; Rate 200 g/ha, PREEMERGENCE): 3
- Plant response rating, Corn (corn; POSTEMERGENCE, Rate 50 g/ha): 4
- Plant response rating, Corn (corn; POSTEMERGENCE, Rate 200 g/ha): 5
- Plant response rating, Corn (corn; PREEMERGENCE, Rate 50 g/ha): 0
- Plant response rating, Corn (corn; Rate 200 g/ha, PREEMERGENCE): 0
- Plant response rating, Cotton (cotton; POSTEMERGENCE, Rate 50 g/ha): 10
- Plant response rating, Cotton (cotton; POSTEMERGENCE, Rate 200 g/ha): 10
- Plant response rating, Cotton (cotton; PREEMERGENCE, Rate 50 g/ha): 0
- Plant response rating, Cotton (cotton; Rate 200 g/ha, PREEMERGENCE): 2
- Plant response rating, Crabgrass (crabgrass; POSTEMERGENCE, Rate 50 g/ha): 3
- Plant response rating, Crabgrass (crabgrass; POSTEMERGENCE, Rate 200 g/ha): 6
- Plant response rating, Crabgrass (crabgrass; PREEMERGENCE, Rate 50 g/ha): 0
- Plant response rating, Crabgrass (crabgrass; Rate 200 g/ha, PREEMERGENCE): 0
- Plant response rating, Giant foxtail (giant foxtail; POSTEMERGENCE, Rate 50 g/ha): 4
- Plant response rating, Giant foxtail (giant foxtail; PREEMERGENCE, Rate 50 g/ha): 0
- Plant response rating, Giant foxtail (giant foxtail; Rate 200 g/ha, POSTEMERGENCE): 6
- Plant response rating, Giant foxtail (giant foxtail; Rate 200 g/ha, PREEMERGENCE): 5
- Plant response rating, Lambsquarter (lambsquarters; POSTEMERGENCE, Rate 50 g/ha): 7
- Plant response rating, Lambsquarter (lambsquarters; PREEMERGENCE, Rate 50 g/ha): 9
- Plant response rating, Lambsquarter (lambsquarters; Rate 200 g/ha, POSTEMERGENCE): 10
- Plant response rating, Lambsquarter (lambsquarters; Rate 200 g/ha, PREEMERGENCE): 9
- Plant response rating, Morningglory (morningglory; POSTEMERGENCE, Rate 50 g/ha): 9
- Plant response rating, Morningglory (morningglory; PREEMERGENCE, Rate 50 g/ha): 1
- Plant response rating, Morningglory (morningglory; Rate 200 g/ha, POSTEMERGENCE): 10
- Plant response rating, Morningglory (morningglory; Rate 200 g/ha, PREEMERGENCE): 3
- Plant response rating, Rape (rape; POSTEMERGENCE, Rate 50 g/ha): 3
- Plant response rating, Rape (rape; PREEMERGENCE, Rate 50 g/ha): 1
- Plant response rating, Rape (rape; Rate 200 g/ha, POSTEMERGENCE): 6
- Plant response rating, Rape (rape; Rate 200 g/ha, PREEMERGENCE): 2
- Plant response rating, Rice (rice; POSTEMERGENCE, Rate 50 g/ha): 4
- Plant response rating, Rice (rice; PREEMERGENCE, Rate 50 g/ha): 0
- Plant response rating, Rice (rice; Rate 200 g/ha, POSTEMERGENCE): 5
- Plant response rating, Rice (rice; Rate 200 g/ha, PREEMERGENCE): 0
- Plant response rating, Sorghum (sorghum; POSTEMERGENCE, Rate 50 g/ha): 3
- Plant response rating, Sorghum (sorghum; PREEMERGENCE, Rate 50 g/ha): 0
- Plant response rating, Sorghum (sorghum; Rate 200 g/ha, POSTEMERGENCE): 4
- Plant response rating, Sorghum (sorghum; Rate 200 g/ha, PREEMERGENCE): 0
- Plant response rating, Soybean (soybean; POSTEMERGENCE, Rate 50 g/ha): 7
- Plant response rating, Soybean (soybean; PREEMERGENCE, Rate 50 g/ha): 0
- Plant response rating, Soybean (soybean; Rate 200 g/ha, POSTEMERGENCE): 7
- Plant response rating, Soybean (soybean; Rate 200 g/ha, PREEMERGENCE): 0
- Plant response rating, Sugar beet (sugar beet; POSTEMERGENCE, Rate 50 g/ha): 10
- Plant response rating, Sugar beet (sugar beet; PREEMERGENCE, Rate 50 g/ha): 1
- Plant response rating, Sugar beet (sugar beet; Rate 200 g/ha, POSTEMERGENCE): 10
- Plant response rating, Sugar beet (sugar beet; Rate 200 g/ha, PREEMERGENCE): 8
- Plant response rating, Velvetleaf (velvetleaf; POSTEMERGENCE, Rate 50 g/ha): 8
- Plant response rating, Velvetleaf (velvetleaf; PREEMERGENCE, Rate 50 g/ha): 2
- Plant response rating, Velvetleaf (velvetleaf; Rate 200 g/ha, POSTEMERGENCE): 9
- Plant response rating, Velvetleaf (velvetleaf; Rate 200 g/ha, PREEMERGENCE): 4
- Plant response rating, Wheat (wheat; POSTEMERGENCE, Rate 50 g/ha): 3
- Plant response rating, Wheat (wheat; PREEMERGENCE, Rate 50 g/ha): 0
- Plant response rating, Wheat (wheat; Rate 200 g/ha, POSTEMERGENCE): 6
- Plant response rating, Wheat (wheat; Rate 200 g/ha, PREEMERGENCE): 2
- Plant response rating, Wild buckwheat (wild buckwheat; POSTEMERGENCE, Rate 50 g/ha): 10
- Plant response rating, Wild buckwheat (wild buckwheat; PREEMERGENCE, Rate 50 g/ha): 0
- Plant response rating, Wild buckwheat (wild buckwheat; Rate 200 g/ha, POSTEMERGENCE): 10
- Plant response rating, Wild buckwheat (wild buckwheat; Rate 200 g/ha, PREEMERGENCE): 9
- Plant response rating, Wild oat (wild oat; POSTEMERGENCE, Rate 50 g/ha): 3
- Plant response rating, Wild oat (wild oat; PREEMERGENCE, Rate 50 g/ha): 0
- Plant response rating, Wild oat (wild oat; Rate 200 g/ha, POSTEMERGENCE): 3
- Plant response rating, Nutsedge (purple nutsedge; POSTEMERGENCE, Rate 50 g/ha): 2
- Plant response rating, Nutsedge (purple nutsedge; PREEMERGENCE, Rate 50 g/ha): 0
- Plant response rating, Nutsedge (purple nutsedge; Rate 200 g/ha, POSTEMERGENCE): 8
- Plant response rating, Nutsedge (purple nutsedge; Rate 200 g/ha, PREEMERGENCE): 0
